In US20250145609A1, “3-SUBSTITUTED PYRIDAZINE COMPOUNDS AS SMARCA2 AND/OR SMARCA4 DEGRADERS” (Aurigene Oncology Limited, priority 2022, published 2025):

How the values were obtained:
Assay type in all cases: cell-based
VCaP cells = experiment: Anti proliferative activity in VCaP cell line by CellTiter Glo assay; details: Homo sapiens, VCaP, 192 h, 8 days incubation, CellTiter Glo luminescence
Experimental: Example-P1: Determination of Anti Proliferative Activity of Compounds in Cell Lines VCaP by Cell Titer Glo©(Promega) Assay
VCaP (ATCC CRL-2876) cells were seeded in 96 well plate flat black clear bottom plates (Corning, Cat. No 3904) using complete DMEM Medium. Next day, compounds listed in the present invention were added to cells from 10 mM stocks made in DMSO (Sigma Cat no. D2650). Each concentration of compound was tested in triplicate with DMSO concentration at a final percentage not exceeding 0.3 in the cells. After the incubation of VCaP cells with compound for 8 days assay was terminated using 50 μl of CellTiter Glo© reagent (Promega, Cat. no G7572). CellTiter-Glo® Luminescent reagent determines the number of viable cells based on quantitation of ATP present which is an indicator of cell number and metabolic activity. Luminescence readings were taken in Victor-3 instrument. Percent inhibition of proliferation was calculated using formula, % inhibition=100−(luminescence value of test/luminescence value of DMSO control)*100. DMSO control (0%)=Cells in complete media with DMSO; blank=Media alone containing DMSO. EC50 was calculated using graph pad prism software.
Herein the group “A” refers to EC50 values lower than l0 nM, group “B” refers to EC50 values between l0 nM-100 nM (both inclusive) and group “C” refers to EC50 values greater than 100 nM.

SMARCA2 = biological target: T1, SMARCA2 (Homo sapiens, UniProt P51531); experiment: SMARCA2 degradation in VCaP cells by Western blot; details: at 100 nM, 16 hours
T1 construct: endogenous in cells; host or cells: VCaP (ATCC CRL-2876)
T1 sequence (P51531 whole entry): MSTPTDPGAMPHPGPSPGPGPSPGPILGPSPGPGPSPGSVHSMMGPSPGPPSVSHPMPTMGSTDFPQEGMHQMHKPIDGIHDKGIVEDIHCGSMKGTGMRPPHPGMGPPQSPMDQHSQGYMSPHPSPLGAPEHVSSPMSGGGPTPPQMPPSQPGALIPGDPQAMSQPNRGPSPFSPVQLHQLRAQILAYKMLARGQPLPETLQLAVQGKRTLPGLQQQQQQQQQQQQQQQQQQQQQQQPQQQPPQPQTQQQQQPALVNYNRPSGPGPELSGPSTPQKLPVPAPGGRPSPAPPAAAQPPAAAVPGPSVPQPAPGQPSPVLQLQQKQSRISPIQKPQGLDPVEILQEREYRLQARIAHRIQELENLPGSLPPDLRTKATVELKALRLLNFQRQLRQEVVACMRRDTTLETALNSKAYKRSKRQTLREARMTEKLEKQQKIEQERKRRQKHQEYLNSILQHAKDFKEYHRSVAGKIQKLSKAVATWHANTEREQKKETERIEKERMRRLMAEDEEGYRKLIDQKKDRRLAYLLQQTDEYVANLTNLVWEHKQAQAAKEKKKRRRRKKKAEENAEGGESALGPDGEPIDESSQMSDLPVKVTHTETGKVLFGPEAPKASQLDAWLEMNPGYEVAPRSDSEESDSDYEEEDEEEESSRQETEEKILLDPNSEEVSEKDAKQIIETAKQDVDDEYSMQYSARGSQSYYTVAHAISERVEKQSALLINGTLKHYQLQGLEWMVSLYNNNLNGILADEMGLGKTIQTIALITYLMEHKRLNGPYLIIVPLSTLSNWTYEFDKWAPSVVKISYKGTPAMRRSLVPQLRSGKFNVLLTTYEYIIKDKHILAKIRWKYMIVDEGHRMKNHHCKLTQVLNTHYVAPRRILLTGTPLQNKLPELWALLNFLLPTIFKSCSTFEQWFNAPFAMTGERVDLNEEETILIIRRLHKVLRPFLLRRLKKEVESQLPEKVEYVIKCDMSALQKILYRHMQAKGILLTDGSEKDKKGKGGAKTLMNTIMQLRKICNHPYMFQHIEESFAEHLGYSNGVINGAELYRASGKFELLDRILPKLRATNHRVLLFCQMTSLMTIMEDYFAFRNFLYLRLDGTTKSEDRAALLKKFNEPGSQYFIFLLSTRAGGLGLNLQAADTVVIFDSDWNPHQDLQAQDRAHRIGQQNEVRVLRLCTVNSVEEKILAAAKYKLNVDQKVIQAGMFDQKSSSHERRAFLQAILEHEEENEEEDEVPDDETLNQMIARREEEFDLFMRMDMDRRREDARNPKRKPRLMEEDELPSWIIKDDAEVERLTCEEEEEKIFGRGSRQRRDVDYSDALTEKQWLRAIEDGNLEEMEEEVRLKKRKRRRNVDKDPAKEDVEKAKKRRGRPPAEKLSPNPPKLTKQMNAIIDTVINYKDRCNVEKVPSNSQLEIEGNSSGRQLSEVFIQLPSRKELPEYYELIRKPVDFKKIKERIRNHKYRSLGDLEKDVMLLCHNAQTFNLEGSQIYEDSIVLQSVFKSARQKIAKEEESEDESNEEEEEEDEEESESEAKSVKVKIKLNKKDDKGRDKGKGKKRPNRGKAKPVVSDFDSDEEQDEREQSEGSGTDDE
Outline: (§1)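 VCaP cells in DMEM treated 16 h with compound at a single 100 nM dose (DMSO ≤0.3%). Lysates were probed by Western blot for SMARCA2 or SMARCA4, with beta-tubulin as loading control. Percent degradation was calculated from band signals.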

SMARCA4 = biological target: T2, SMARCA4 (Homo sapiens, UniProt P51532); experiment: SMARCA4 degradation in VCaP cells by Western blot; details: VCaP, 16 h, at 100 nM
T2 construct: endogenous in cells; host or cells: VCaP (ATCC CRL-2876)
T2 sequence (P51532 whole entry): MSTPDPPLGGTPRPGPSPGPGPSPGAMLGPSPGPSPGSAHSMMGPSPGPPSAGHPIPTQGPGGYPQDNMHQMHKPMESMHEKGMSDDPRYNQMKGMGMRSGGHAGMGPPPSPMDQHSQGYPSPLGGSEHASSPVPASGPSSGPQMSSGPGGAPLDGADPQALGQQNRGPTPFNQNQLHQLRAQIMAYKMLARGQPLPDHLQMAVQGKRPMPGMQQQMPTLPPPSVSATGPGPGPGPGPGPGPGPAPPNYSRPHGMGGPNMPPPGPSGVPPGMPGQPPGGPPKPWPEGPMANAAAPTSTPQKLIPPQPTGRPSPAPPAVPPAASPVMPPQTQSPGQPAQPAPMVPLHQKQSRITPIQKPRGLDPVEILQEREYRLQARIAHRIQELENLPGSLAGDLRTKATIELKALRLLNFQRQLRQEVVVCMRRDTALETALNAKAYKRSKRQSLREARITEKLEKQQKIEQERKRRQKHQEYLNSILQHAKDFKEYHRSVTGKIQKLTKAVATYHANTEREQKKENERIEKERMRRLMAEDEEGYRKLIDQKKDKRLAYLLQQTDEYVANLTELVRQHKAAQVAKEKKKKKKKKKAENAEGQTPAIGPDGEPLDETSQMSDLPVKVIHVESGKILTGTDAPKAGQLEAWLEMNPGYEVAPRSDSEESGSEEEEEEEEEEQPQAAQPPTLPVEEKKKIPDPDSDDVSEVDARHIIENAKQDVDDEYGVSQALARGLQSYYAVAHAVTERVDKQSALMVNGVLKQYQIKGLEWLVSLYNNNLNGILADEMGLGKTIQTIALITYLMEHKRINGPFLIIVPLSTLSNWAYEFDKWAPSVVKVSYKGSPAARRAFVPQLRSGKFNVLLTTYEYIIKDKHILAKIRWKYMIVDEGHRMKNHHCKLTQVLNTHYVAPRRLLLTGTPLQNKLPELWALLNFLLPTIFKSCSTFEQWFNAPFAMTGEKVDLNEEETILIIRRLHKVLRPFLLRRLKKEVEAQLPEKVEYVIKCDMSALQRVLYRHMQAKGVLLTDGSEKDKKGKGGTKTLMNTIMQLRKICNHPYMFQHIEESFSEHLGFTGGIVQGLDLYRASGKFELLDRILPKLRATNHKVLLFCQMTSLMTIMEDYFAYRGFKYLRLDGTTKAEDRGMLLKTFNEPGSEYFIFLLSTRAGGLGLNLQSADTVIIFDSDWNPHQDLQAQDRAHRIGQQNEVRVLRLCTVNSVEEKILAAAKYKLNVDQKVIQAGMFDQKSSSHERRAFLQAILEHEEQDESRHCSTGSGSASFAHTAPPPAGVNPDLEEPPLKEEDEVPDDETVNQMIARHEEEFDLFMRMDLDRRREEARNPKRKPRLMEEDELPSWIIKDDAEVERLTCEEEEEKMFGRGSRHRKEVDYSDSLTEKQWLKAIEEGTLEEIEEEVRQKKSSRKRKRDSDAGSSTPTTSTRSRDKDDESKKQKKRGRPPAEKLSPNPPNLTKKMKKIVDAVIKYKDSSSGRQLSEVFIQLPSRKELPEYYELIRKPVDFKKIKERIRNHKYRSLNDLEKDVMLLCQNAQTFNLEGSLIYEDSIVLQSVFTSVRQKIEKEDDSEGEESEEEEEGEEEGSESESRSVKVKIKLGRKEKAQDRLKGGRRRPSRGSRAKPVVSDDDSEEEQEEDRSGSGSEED
Outline: as §1

Compound | EC50 (VCaP cells) [nM] | Percent degradation SMARCA2 (SMARCA2) [%] | Percent SMARCA4 degradation at 0.1 µM (SMARCA4) [%]
Cc1ncsc1-c1ccc([C@H](C)NC(=O)[C@@H]2C[C@@H](O)CN2C(=O)[C@@H](NC(=O)CN2CCC(O)(c3ccc(-c4cc(-c5ccccc5O)nnc4N)cc3)CC2)C(C)(C)C)cc1 [Compound 48, (2S,4R)-1-((S)-2-(2-(4-(4-(3-amino-6-(2-hydroxyphenyl)pyridazin-4-yl)phenyl)-4-hydroxypiperidin-1-yl)acetamido)-3,3-dimethylbutanoyl)-4-hydroxy-N-((S)-1-(4-(4-methylthiazol-5-yl)phenyl)ethyl)pyrrolidine-2-carboxamide] | 10 to 100 | 97 | 20
Cc1ncsc1-c1ccc([C@H](C)NC(=O)[C@@H]2C[C@@H](O)CN2C(=O)[C@@H](NC(=O)Cn2ccc(-c3ccc(-c4cc(-c5ccccc5O)nnc4N)cc3)c2)C(C)(C)C)cc1 [Compound 50, (2S,4R)-1-((S)-2-(2-(3-(4-(3-amino-6-(2-hydroxyphenyl)pyridazin-4-yl)phenyl)-1H-pyrrol-1-yl)acetamido)-3,3-dimethylbutanoyl)-4-hydroxy-N-((S)-1-(4-(4-methylthiazol-5-yl)phenyl)ethyl)pyrrolidine-2-carboxamide] | > 100 | 85 | 0
Cc1ncsc1-c1ccc([C@H](C)NC(=O)[C@@H]2C[C@@H](O)CN2C(=O)[C@@H](NC(=O)CN2CCC(c3ccc(-c4cc(-c5ccccc5O)nnc4N)cc3)C2)C(C)(C)C)cc1 (stereo partly drawn) [Compound 51, (2S,4R)-1-((2S)-2-(2-(3-(4-(3-amino-6-(2-hydroxyphenyl)pyridazin-4-yl)phenyl)pyrrolidin-1-yl)acetamido)-3,3-dimethylbutanoyl)-4-hydroxy-N-((S)-1-(4-(4-methylthiazol-5-yl)phenyl)ethyl)pyrrolidine-2-carboxamide] | 10 to 100 | 95 | 24
Cc1ncsc1-c1ccc([C@H](C)NC(=O)[C@@H]2C[C@@H](O)CN2C(=O)[C@@H](NC(=O)CN2CC(c3ccc(-c4cc(-c5ccccc5O)nnc4N)cc3)C2)C(C)(C)C)cc1 [Compound 52, (2S,4R)-1-((S)-2-(2-(3-(4-(3-amino-6-(2-hydroxyphenyl)pyridazin-4-yl)phenyl)azetidin-1-yl)acetamido)-3,3-dimethylbutanoyl)-4-hydroxy-N-((S)-1-(4-(4-methylthiazol-5-yl)phenyl)ethyl)pyrrolidine-2-carboxamide] | > 100 | 97 | 70
Cc1ncsc1-c1ccc([C@H](C)NC(=O)[C@@H]2C[C@@H](O)CN2C(=O)[C@@H](NC(=O)CN2CCC(Oc3ccc(-c4cc(-c5ccccc5O)nnc4N)cc3)CC2)C(C)(C)C)cc1 [Compound 53, (2S,4R)-1-((S)-2-(2-(4-(4-(3-amino-6-(2-hydroxyphenyl)pyridazin-4-yl)phenoxy)piperidin-1-yl)acetamido)-3,3-dimethylbutanoyl)-4-hydroxy-N-((S)-1-(4-(4-methylthiazol-5-yl)phenyl)ethyl)pyrrolidine-2-carboxamide] | < 10 | 98 | 89
Cc1ncsc1-c1ccc([C@H](C)NC(=O)[C@@H]2C[C@@H](O)CN2C(=O)[C@@H](NC(=O)CCCCOc2ccc(-c3cc(-c4ccccc4O)nnc3N)cc2)C(C)(C)C)cc1 [Compound 58, (2S,4R)-1-((S)-2-(5-(4-(3-amino-6-(2-hydroxyphenyl)pyridazin-4-yl)phenoxy)pentanamido)-3,3-dimethylbutanoyl)-4-hydroxy-N—((S)-1-(4-(4-methylthiazol-5-yl)phenyl)ethyl)pyrrolidine-2-carboxamide] | 10 to 100 | 99 | 90
